Here are results for 25 molecules from PubChem BioAssay (NCI).

Some test systems named below: NCI-H522 lung; EKVX NSCLC; NCI-H23 lung; SN12C renal; KM12 colon; CAKI-1 renal; HCT-116 colon; ACHN renal.
Holding throughout (experiment): growth of human tumour cells (NCI), 48 h

Structures are written as SMILES.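 1) Cells in 96-well plates. 2) Compound, 48 h, 5 concentrations. 3) Linear interpolation between surrounding doses. 4) Unreached endpoint = highest concentration. GI50 is the concentration that inhibits growth by half. The concentration for full growth arrest is given as TGI.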

Take `O=C(c1ccccc1)C1OC12C(=O)Nc1c(Cl)cc(Cl)cc12` (centres undefined): the TGI in the experiment with NCI-H522 lung was 34.6 µM; in the experiment on EKVX NSCLC, over 100 µM; in the experiment on NCI-H23 lung, over 100 µM; in the experiment with SN12C renal, over 91.2 µM; with KM12 colon, over 100 µM; in the experiment on CAKI-1 renal, over 78 µM. The TGI in the experiment on HCT-116 colon was over 71.9 µM; in the experiment with ACHN renal, over 85.1 µM.

Regarding `O=c1ncc(F)cn1C1OC(CO)C(O)C1O` (centres undefined), the TGI was over 70.2 µM with NCI-H522 lung; over 100 µM in the experiment on EKVX NSCLC; over 100 µM in the experiment on NCI-H23 lung; over 60.4 µM in the experiment on SN12C renal; over 51.2 µM in the experiment on KM12 colon; over 100 µM in the experiment with CAKI-1 renal. Besides, the TGI in the experiment on HCT-116 colon and with ACHN renal was over 100 µM in each case.

As to `CSc1nc(NC2OC(COC(C)=O)C(OC(C)=O)C(OC(C)=O)C2OC(C)=O)c2c(n1)OCC2=O` (centres undefined), the TGI with NCI-H522 lung, in the experiment on NCI-H23 lung, in the experiment on SN12C renal, in the experiment with KM12 colon, in the experiment with CAKI-1 renal and in the experiment with HCT-116 colon was over 100 µM throughout. Also, the TGI in the experiment on ACHN renal is over 100 µM.

Consider `Oc1ccc2ccccc2c1N=Nc1ccsc1`, for which the TGI with NCI-H522 lung, in the experiment on NCI-H23 lung, in the experiment on SN12C renal, in the experiment on KM12 colon, in the experiment with CAKI-1 renal and with HCT-116 colon was over 100 µM in each case. This molecule also showed a TGI with ACHN renal of over 100 µM.

As to `CCC[CH2][Sn]1([CH2]CCC)[O]CC(CN(C)Cc2ccccc2)[O]1` (centres undefined), the GI50 was 1.94 µM with NCI-H522 lung; 10.7 µM in the experiment with EKVX NSCLC; 3.18 µM in the experiment with NCI-H23 lung; 10.1 µM in the experiment on SN12C renal; 13.9 µM with KM12 colon; 1.47 µM with CAKI-1 renal. For the same molecule, the GI50 in the experiment on HCT-116 colon was 15.7 µM; in the experiment on ACHN renal it was 11.2 µM. Besides, the TGI turned out to be 4.61 µM in the experiment on NCI-H522 lung; 27.3 µM in the experiment with EKVX NSCLC; 14.5 µM in the experiment on NCI-H23 lung; 21.9 µM in the experiment with SN12C renal; 26.8 µM with KM12 colon; 7.13 µM in the experiment with CAKI-1 renal. The TGI in the experiment with HCT-116 colon was found to be 29.2 µM; in the experiment with ACHN renal, 23.3 µM.

As to `CC(=O)OC[C@@H](COC(=O)/C=C/c1ccc(O)cc1)OC1OC(CO)C(O)C(O)C1O` (some centres undefined), the TGI in the experiment with NCI-H522 lung, in the experiment with EKVX NSCLC, in the experiment on NCI-H23 lung, in the experiment with SN12C renal, in the experiment with KM12 colon and in the experiment with CAKI-1 renal was over 100 µM throughout. Also, the TGI with HCT-116 colon and in the experiment with ACHN renal was over 100 µM throughout.

In the case of `O=c1c(Br)cc2nc3ccccc3sc-2c1Br`, the TGI is 36.2 µM with NCI-H522 lung; over 100 µM in the experiment with EKVX NSCLC; over 100 µM in the experiment on NCI-H23 lung; over 100 µM in the experiment with SN12C renal; over 100 µM in the experiment on KM12 colon; over 100 µM in the experiment with CAKI-1 renal. For the same molecule, the TGI in the experiment on HCT-116 colon and in the experiment on ACHN renal was over 100 µM in each case.

`C/C(CC(=O)Nc1ccc(C)c(C)c1)=N\NC(N)=O`: the TGI in the experiment on NCI-H522 lung, with EKVX NSCLC, in the experiment with NCI-H23 lung, in the experiment on KM12 colon, in the experiment with HCT-116 colon and in the experiment on ACHN renal was over 100 µM throughout.

For `O=[P+](O)c1ccsc1`, the TGI in the experiment on NCI-H522 lung, with EKVX NSCLC, in the experiment on NCI-H23 lung, in the experiment on SN12C renal, in the experiment on CAKI-1 renal and in the experiment with HCT-116 colon was over 100 µM in each case. The same molecule came in with a TGI in the experiment on ACHN renal of over 100 µM.

As to `Cc1ccc(/C(O)=C/C(=O)C(=O)NC23CC4CC(CC(C4)C2)C3)cc1`, the TGI in the experiment on EKVX NSCLC, in the experiment on NCI-H23 lung, in the experiment on SN12C renal, with KM12 colon and with CAKI-1 renal was over 10 µM each time.

With `Cc1cccc(C)c1NC(=O)C1C(=O)N(c2c(C)cccc2C)C(=O)/C1=N\N` (centres undefined), the TGI in the experiment with NCI-H522 lung, in the experiment with EKVX NSCLC, with NCI-H23 lung, in the experiment with SN12C renal, in the experiment on CAKI-1 renal and in the experiment with HCT-116 colon was over 100 µM throughout. The TGI with ACHN renal was over 100 µM.

As to `C[C@]12CC/C(=N\O)C=C1CC[C@@H]1C2CC[C@@]2(C)C1CC[C@@H]2OC1CCCCO1` (some centres undefined), the TGI with NCI-H522 lung was 34.7 µM; in the experiment on EKVX NSCLC it was 31.9 µM; with NCI-H23 lung it was 31.2 µM; with SN12C renal, over 10 µM; with KM12 colon it was 33.2 µM; in the experiment with CAKI-1 renal, over 10 µM. Further, the TGI in the experiment on HCT-116 colon turned out to be 43.8 µM; in the experiment on ACHN renal, 30.3 µM.

Take `CC1=C(O)C(=O)C2C(=O)C1C1Cc3ccccc3C21` (centres undefined): the TGI with NCI-H522 lung, with EKVX NSCLC, in the experiment on NCI-H23 lung, with KM12 colon, in the experiment on CAKI-1 renal and in the experiment with ACHN renal was over 100 µM throughout.

`O=C(CCN1CCN(c2ccccc2)CC1)N1CCc2c([nH]c3ccccc23)C1c1cccnc1` (centres undefined): the TGI was 30 µM in the experiment on NCI-H522 lung; 34.7 µM in the experiment with EKVX NSCLC; 57.7 µM in the experiment on NCI-H23 lung; 29.6 µM in the experiment on SN12C renal; 36.7 µM in the experiment on KM12 colon; 33.5 µM with CAKI-1 renal. Further, the TGI with HCT-116 colon is 28.1 µM; in the experiment on ACHN renal, 40 µM.

Turning to `CC(C)([NH-])CO.CC(C)([NH-])CO.[Cl][Cd][Cl]`, the GI50 in the experiment on NCI-H522 lung was 1.56 µM; in the experiment with NCI-H23 lung, 13.9 µM; in the experiment on KM12 colon, 36.5 µM; with CAKI-1 renal it was 18.3 µM; with HCT-116 colon it was 18.8 µM; in the experiment with ACHN renal, over 100 µM. Moreover, the TGI in the experiment on NCI-H522 lung is 3.37 µM; in the experiment on NCI-H23 lung, 28.4 µM; in the experiment on KM12 colon, over 100 µM; in the experiment on CAKI-1 renal, 32.3 µM; in the experiment on HCT-116 colon, 33.8 µM; in the experiment on ACHN renal it was over 100 µM.

Consider `NC(=O)/N=C1/CCC2C3CCCC2C13`, for which the TGI in the experiment with NCI-H522 lung, with EKVX NSCLC, in the experiment with NCI-H23 lung, with SN12C renal, with KM12 colon and in the experiment on CAKI-1 renal was over 100 µM in each case. Moreover, the TGI with HCT-116 colon and with ACHN renal was over 100 µM in each case.

On to `COc1ccc(-c2cc(=O)c3cc(OC)ccc3[nH]2)cc1`, for which the TGI with NCI-H522 lung, with EKVX NSCLC, in the experiment on NCI-H23 lung, with SN12C renal, with KM12 colon and in the experiment on HCT-116 colon was over 100 µM in each case. Also, the TGI in the experiment with ACHN renal is over 100 µM.

In the case of `CN1C(=O)C2C3C=C4c5ccccc5N(c5ccccc5)C4(C2C1=O)[C@H]1C(=O)N(C)C(=O)[C@@H]31` (some centres undefined), the TGI in the experiment on NCI-H522 lung, in the experiment with EKVX NSCLC, in the experiment on NCI-H23 lung, in the experiment on SN12C renal, with KM12 colon and in the experiment on HCT-116 colon was over 100 µM throughout. The TGI in the experiment on ACHN renal is over 100 µM.

`O=C(O)CCC(N=Cc1nc(-c2ccccc2)oc1O)C(=O)O` (centres undefined): the TGI with NCI-H522 lung, with EKVX NSCLC, in the experiment with NCI-H23 lung, in the experiment on SN12C renal, in the experiment with KM12 colon and in the experiment with CAKI-1 renal was over 100 µM in each case. The TGI in the experiment on HCT-116 colon and in the experiment on ACHN renal was over 100 µM each time.

Regarding `COc1ccc(/C(Cl)=C(\C=N/O)c2ccc(OC)c(OC)c2)cc1OC`, the TGI with NCI-H522 lung, in the experiment on EKVX NSCLC, in the experiment on NCI-H23 lung, with SN12C renal, with KM12 colon and in the experiment with CAKI-1 renal was over 100 µM in each case. Also, the TGI in the experiment with HCT-116 colon and in the experiment with ACHN renal was over 100 µM each time.

On to `COC(=O)C(C(=O)C(=O)Nc1ccc([N+](=O)[O-])cc1[N+](=O)[O-])c1nc2ccc(Cl)cc2[nH]c1=O` (centres undefined), for which the TGI with EKVX NSCLC, in the experiment on NCI-H23 lung, in the experiment on SN12C renal, in the experiment on KM12 colon, in the experiment on CAKI-1 renal and with HCT-116 colon was over 100 µM throughout. In addition, the TGI with ACHN renal was over 100 µM.

On to `Cc1cccc(C(C)(C)C)c1NC(=O)CC1C(=O)Nc2ccccc2S1(=O)=O` (centres undefined), for which the TGI came out at 14.5 µM with EKVX NSCLC; 18.9 µM with NCI-H23 lung; 25.7 µM in the experiment with SN12C renal; 31.3 µM in the experiment with CAKI-1 renal; 22.3 µM in the experiment with HCT-116 colon; 22.7 µM with ACHN renal.

With `CC(Nc1ccc(S(=O)(=O)N=C(N)N)cc1)c1c2ccccc2nc2ccccc12` (centres undefined), the TGI in the experiment on NCI-H522 lung was 38 µM; in the experiment on EKVX NSCLC, over 100 µM; in the experiment on NCI-H23 lung it was 88.9 µM; in the experiment on SN12C renal, over 100 µM; in the experiment on KM12 colon, over 100 µM; in the experiment on CAKI-1 renal, 81 µM. Also, the TGI in the experiment on HCT-116 colon was over 10 µM; in the experiment with ACHN renal, over 100 µM.

Consider `Cn1cnc([N+](=O)[O-])c1Sc1nccn1-c1cccc2ccccc12`, for which the TGI in the experiment on NCI-H522 lung is 22.4 µM; in the experiment with EKVX NSCLC, 92.4 µM; with NCI-H23 lung, 50.6 µM; in the experiment with SN12C renal, over 100 µM; with KM12 colon, over 100 µM; in the experiment with CAKI-1 renal it was over 100 µM. Also, the TGI in the experiment with HCT-116 colon worked out at 60.3 µM; in the experiment on ACHN renal it was 94.2 µM.

Take `CC(=O)C1C(c2ccc(N(C)C)cc2)c2cc3c(cc2OC1(C)O)OCO3` (centres undefined): the TGI was over 100 µM in the experiment on EKVX NSCLC; over 100 µM with NCI-H23 lung; over 100 µM in the experiment with SN12C renal; 87.8 µM in the experiment with CAKI-1 renal; over 100 µM in the experiment with HCT-116 colon; over 100 µM in the experiment on ACHN renal.
